Data set [1] can be described thus: cytotoxicity of C-3′ modified docetaxel analog (cell line not clearly stated). It is filed as cell-based. The settings on record: compared with isobutenyl group of RAH-1.
Data set [2] has as its system LCC6-MDR: MDR1 transduced line. As to the kind of experiment: cytotoxicity assay of second generation taxoids. In kind it is cell-based, human. The settings on record: Homo sapiens, LCC6MDR, 72 h, read-out: LCC6-MDR IC50.
Data set [3] deals with LCC6-WT: human breast carcinoma. The experiment in a line: cytotoxicity assay of second generation taxoids. In kind it is cell-based. The settings on record: Homo sapiens, 72 h, read-out: LCC6-WT IC50. How it is done:
A cytotoxicity assay of these new second generation taxoids was performed on human breast cancer cell lines, LCC6-WT and LCC-MDR, and selected taxoids were also assayed for their potency against MCF7 and MCF7-R (Skehan, P., et al., J. Nat. Cancer Inst. 1990, 82, 1107-1112).

The subject of data set [4] is A2780. As to the kind of experiment: growth inhibition by cell counts, 72 h. In kind it is cell-based, human. The settings on record: read-out: A2780 IC50. The method, then: (§1) Cells were plated in 6-well flat bottom plates (Falcon, Lincoln Park, N.J.) at a concentration of 10^5 cells ml in complete medium. After 24 h, the medium was replaced with media containing the test substances. Control cells were treated with vehicle alone. Cells were then washed twice and cultures maintained up to 72 h in complete medium (without removing the test substances). At this time point quadruplicate counts of triplicate cultures were performed. To calculate the growth inhibition effect, three independent experiments were performed for each test substance/cell line. The IC50 values were then calculated by fitting the concentration-effect curve data obtained in the three experiments with the sigmoid-Emax model using nonlinear regression, weighted by the reciprocal of the square of the predicted effect according to the method of Motulsky, H. J. and Ransnas, L. A., FASEB J. 1:365-74 (1987).

Data set [5] deals with DU-145. The experiment in a line: growth inhibition by cell counts, 72 h. The settings on record: read-out: DU-145 IC50. In kind it is cell-based, human. The method, then:
as §1

For data set [6], the system named is MCF-7 ADRr. As to the kind of experiment: growth inhibition by cell counts, 72 h. In kind it is cell-based, human. The settings on record: read-out: MCF-7 ADRr IC50. The method, then:
as §1

Data set [7] relates to MCF-7 wt. The experiment in a line: growth inhibition by cell counts, 72 h. It is filed as cell-based, human. The settings on record: read-out: MCF-7 wt IC50. How it is done:
as §1

The test system of data set [8] is NCI-H23. As to the kind of experiment: growth inhibition by cell counts, 72 h. The settings on record: read-out: NCI-H23 IC50. It is filed as cell-based, human. The method, then: as §1
Data set [9] relates to WiDr. The experiment in a line: growth inhibition by cell counts, 72 h. The settings on record: read-out: WiDr IC50. It is filed as cell-based, human. The method, then:
as §1

The test system of data set [10] is PC-3. As to the kind of experiment: growth inhibition by cell counts, 72 h. It is filed as cell-based, human. How it is done:
as §1

Data set [11] concerns HT-29 (colon carcinoma). As to the kind of experiment: tumor cell growth inhibition (SRB, 72 h drug exposure). It is filed as cell-based, human. The following applies: 72 h drug exposure.
The test system of data set [12] is A121 (ovarian carcinoma). Described as above. It is filed as cell-based, human. The settings on record: 72 h drug exposure.
The test system of data set [13] is MCF7 (mammary carcinoma). Described as above. In kind it is cell-based, human.
Data set [14] relates to MCF7-R (mammary carcinoma cells 180-fold resistant to adriamycin). The description is as above. It is filed as cell-based, human.
The test system of data set [15] is multi-drug resistant phenotype human colon carcinoma cells HCT-116/VM. The settings on record: cited from earlier work.
In data set [16] the test system is A549 (non-small cell lung carcinoma). As to the kind of experiment: tumor cell growth inhibition (SRB, 72 h drug exposure). In kind it is cell-based, human. The following applies: 72 h drug exposure; read-out: A549 (NSCLC) IC50.
In data set [17] the test system is human colon carcinoma cells HCT-116. The following applies: cited from earlier work.
Data set [18] relates to B16 melanoma. As to the kind of experiment: intravenous administration to mice bearing B16 melanoma. It is filed as in vivo, B6D2F1 female mice. Set-up: key to Responses (activity rating): A = active; HA = highly active. The method, then:
(§2) The efficacy of the test compounds on solid tumors in vivo was determined experimentally according to the following general experimental protocol:
(§3) The mice subjected to the experiment were subcutaneously grafted bilaterally with 30 to 60 mg of a tumor fragment on day zero. Mice bearing tumors were mixed before being subjected to the various treatments and controls. In the case of treatment of advanced tumors, tumors were allowed to develop to the desired size, and mice having insufficiently developed tumors were eliminated. The selected mice were distributed at random to undergo the treatments and controls. Mice not bearing tumors may also be subjected to the same treatments as the tumor-bearing mice in order to be able to dissociate the toxic effect from the specific effect on the tumor. Chemotherapy generally began from 3 to 22 days after grafting, depending on the type of tumor, and the mice were observed every day. The different mice groups were weighed 3 or 4 times a week until the maximum weight loss was attained (nadir), and the groups were then weighed at least once a week until the end of the trial.
(§4) The tumors were measured 2 or 3 times a week until the tumor reached approximately 2 grams, or until the animal died, if this occurred before the tumor reached 2 grams. The mice were autopsied when sacrificed.
(§5) The antitumor activity was determined in accordance with different parameters recorded such as dose (mg/kg), mode of administration, time of administration, cytotoxicity, toxicity and log10 cell kill.
SB-T-1213, SB-T-121303, SB-T-121304 and SB-T-1250 were evaluated in B6D2F1 female mice bearing B16 melanoma. The general experimental protocol was as described above. The compounds evaluated were administered intravenously (iv) on an intermittent schedule on days 3, 5, and 7 post tumor implantation. With the exception of SB-T-1250, solutions of the compounds for administration were prepared in 5% ethanol, 5% polysorbate 80, and 90% glucose 5% water.

In data set [19] the test system is mammary adenocarcinoma MA17/A. The experiment in a line: oral administration to MA17/A tumor-bearing mice. It is filed as in vivo, C3H/HeN female mice. Further details: key to Responses (activity rating): A = active; HA = highly active. How it is done: as §2, §3, §4, §5
SB-T-1213 was evaluated in C3H/HeN female mice bearing mammary adenocarcinoma MA17/A with an intermittent schedule of oral administrations. The compound for administration was formulated in 10% ethanol, 10% polysorbate 80, and 80% glucose/5% water.
SB-T-1213 was administered 3 times a day on 3 and 7 days post tumor implantation. The two highest dosages of 36.4 and 22.6 mg/kg/adm. were toxic, producing 5/5 drug related deaths (DD) and 20% body weight loss, respectively. However, the highest nontoxic dose of 14 mg/kg/adm. (total dose of 84 mg/kg), produced 8.4% body weight loss at nadir, 4 days post therapy. […] One of five mice was a tumor-free survivor (TFS) on day 94 post tumor implantation with this dosage. Two lower dosages of 8.7 and 5.4 mg/kg/adm. also maintained activity, having a log10 cell kill of greater than 3 and of 2.5, respectively.

The subject of data set [20] is docetaxel-resistant melanoma, B16/TXT. As to the kind of experiment: intravenous administration to B16/TXT melanoma-bearing mice. In kind it is in vivo, B6D2F1 female mice. Set-up: key to Responses (activity rating): A = active; HA = highly active. The settings on record: for T/C / log10 cell kill: days 3, 5, 7. The method, then: as §2, §3, §4, §5
SB-T-1213, SB-T-121303, SB-T-121304 and SB-T-1250 were evaluated in B6D2F1 female mice bearing the docetaxel-resistant melanoma, B16/TXT. The general experimental protocol was as described above. The compounds evaluated were administered intravenously on an intermittent schedule on days 3, 5, and 7 post tumor implantation.

Data on four compounds can be found in patent US6500858B2, “Taxoid anti-tumor agents and pharmaceutical compositions thereof” (The Research Foundation of the state University of New York, priority 1994, dated 2002).

Several values for one entry are separate records, joined by “and”; a condition that tells them apart may be missing. Equal values may be shown once. Read-outs that look alike come from different tables or passages of the source.

Turning to `CC(=O)OC12COC1CC(O)C1(C)C(=O)C(O)C3=C(C)C(OC(=O)C(O)C(C=Cc4ccccc4)NC(=O)OC(C)(C)C)CC(O)(C(OC(=O)c4ccccc4)C21)C3(C)C` (centres unmarked) [3′-dephenyl-3′-(2-phenylethenyl)docetaxel], the decrease in cytotoxicity in data set [1] was above 20 times.

With `CC(=O)O[C@H]1C(=O)[C@@]2(C)[C@H]([C@H](OC(=O)c3ccccc3)[C@]3(O)C[C@H](OC(=O)[C@H](O)[C@@H](NC(=O)c4ccccc4)c4ccccc4)C(C)=C1C3(C)C)[C@]1(OC(C)=O)CO[C@@H]1C[C@@H]2O` [Paclitaxel, paclitaxel, reference compound], the IC50 in [2] amounted to 346 nM; in data set [3], 3.1 nM; in [4] (Homo sapiens, A2780, 72 h), 5.4 nM; in data set [5] (Homo sapiens, DU-145, 72 h), 1.5 nM; in [6] (Homo sapiens, MCF7, 72 h) it was 3300 nM; in [7] (Homo sapiens, MCF7, 72 h), 5.8 nM. For the same compound, the IC50 turned out to be 4.1 nM in data set [8] (Homo sapiens, NCI-H23, 72 h); 3.8 nM in data set [9] (Homo sapiens, WiDr); 3.4 nM in data set [10] (Homo sapiens, PC-3, 72 h); 3.2 nM in [11] (Homo sapiens, HT-29); 6.1 nM in data set [12] (Homo sapiens, A121); 1.7 nM in data set [13] (Homo sapiens, MCF7, 72 h drug exposure, Table 1, read-out: MCF7 (breast) IC50). The IC50 is 1.7 nM in [13] (Homo sapiens, MCF7, 72 h drug exposure, Table 3, read-out: MCF7 IC50) and 300 nM in [14] (Homo sapiens, MCF7R, 72 h drug exposure, Table 1).

Regarding `CC(=O)OC1C(=O)C2(C)C(O)CC3OCC3(OC(C)=O)C2C(OC(=O)c2ccccc2)C2(O)CC(OC(=O)C(O)C(C=C(C)C)NC(=O)c3ccccc3)C(C)=C1C2(C)C` (centres unmarked) [RAH-1, 3′-dephenyl-3′-isobutenylpaclitaxel], the “times better activity than docetaxel” value in data set [15] is listed as 9 times; in [17] it was 7 times. Besides, the “times better activity than paclitaxel” value in data set [15] is listed as “about 20 times”; in data set [17], 4 times. The IC50 is 0.96 nM in [11]; 1.4 nM in data set [12]; 0.54 nM in data set [13] (72 h drug exposure, Table 1, read-out: MCF7 (breast) IC50); 113 nM in [14] (72 h drug exposure, Table 1); 0.45 nM in [16]. Moreover, the “activity against MCF7-R in words” value in [14] (one order of magnitude weaker than Taxoid Ia) is “only marginal activity”.

As for `CCC(=O)OC1C(=O)C2(C)C(O)CC3OCC3(OC(C)=O)C2C(OC(=O)c2ccccc2)C2(O)CC(OC(=O)C(O)C(C=C(C)C)NC(=O)OC(C)(C)C)C(C)=C1C2(C)C` (centres unmarked) [Taxoid Ib, 3′-Dephenyl-3′-(2-methyl-1-propenyl)-10-propanoyldocetaxel], the “Responses (activity rating)” value was “A” in [18] (4.5 mg/kg/adm.); “A” in data set [18] (7.3 mg/kg/adm.); “HA” in data set [18] (11.8 mg/kg/adm.); “A” in [19] (8.7 mg/kg/adm.); “HA” in data set [19] (14.0 mg/kg/adm.); “A” in data set [20] (7.3 mg/kg/adm.). Also, the “Responses (activity rating)” value in [20] (11.8 mg/kg/adm.) and in [20] (19 mg/kg/adm.) was “A” throughout. For the same compound, the log10 cell kill is 1.6 in [18] (4.5 mg/kg/adm., days 3, 5, 7); 1.8 in data set [18] (7.3 mg/kg/adm., days 3, 5, 7); 3 in [18] (11.8 mg/kg/adm., days 3, 5, 7); 1 in [20] (7.3 mg/kg/adm.); 1 in data set [20] (11.8 mg/kg/adm.); 1.6 in data set [20] (19 mg/kg/adm.). The T/C worked out at 0% in data set [18] (11.8 mg/kg/adm., days 3, 5, 7); 0% in data set [19] (14.0 mg/kg/adm., days 3, 7); 74% in data set [20] (4.5 mg/kg/adm.); 11% in [20] (19 mg/kg/adm.). Besides, the “% body weight loss at nadir” value in data set [18] (11.8 mg/kg/adm., days 3, 5, 7, listed as SB-T-1213, 11.8 mg/kg) is 15.3% and 15.3 (3) %; in [19] (14 mg/kg/adm., days 3, 7, total 84 mg/kg, listed as SB-T-1213), 8.4% and 8.4 (4) %; in data set [20] (19 mg/kg/adm., days 3, 5, 7, listed as SB-T-1213, 19 mg/kg) it was 17.1% and 17.1 (4) %. Also, the “drug related deaths (DD)” value in [18] (19 mg/kg/adm., days 3, 5, 7) is given as “⅕”; in data set [19] (36.4 mg/kg/adm., 3 times a day on days 3 and 7), 5/5. Moreover, the highest nontoxic dose in [18] (days 3, 5, 7) stood at 11.8 mg/kg/adm; in [19] (3 times a day on days 3 and 7), 14 mg/kg/adm. The “tumor-free survivors (TFS)” value in data set [19] (8.7 mg/kg/adm.) was 1/5; in [19] (14 mg/kg/adm., day 94 post tumor implantation, listed as SB-T-1213, 14 mg/kg), “One of five and 1/5”. Further, the body weight loss in data set [19] (22.6 mg/kg/adm., 3 times a day on days 3 and 7) came to 20%. Also, the IC50 stood at 1.77 nM in [4] (72 h); 0.3 nM in data set [5] (72 h); 8 nM in data set [6] (72 h); 0.9 nM in data set [7] (72 h); 0.7 nM in data set [8] (72 h); 0.4 nM in data set [9]. Moreover, the IC50 came out at 0.3 nM in data set [10] (72 h); 0.21 nM in data set [13] (Table 2, read-out: MCF7 IC50); 2.16 nM in data set [14] (Table 2).

A word on the IC50: it is the concentration that gives 50% inhibition. In general, T/C refers to the result in the treated group divided by that in the control group, in per cent.
